According to PubChem BioAssay AID292 (DTP/NCI, 2004):
Where “and” joins values, the source holds several entries; their conditions need not be identical. Equal entries are not always repeated. Toxic doses and inconclusive results are not listed. The calls were made as follows: active = survival T/C of 150% or more; inactive = T/C below 125% in these data.

System: B6C3F1 mice, ip Sarcoma M5076, median survival T/C
Experiment: NCI In Vivo Anticancer Drug Screen. Data for tumor model Sarcoma M5076 (intraperitoneal) in B6C3F1 mice
Details: endpoint: median survival time, higher = longer survival
In short: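 Transplantable tumour in mice; compound-treated vs vehicle-treated groups. Read-out: survival. Value = treated/control ratio.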

[1] = dose: 25.0 mg/kg/injection, schedule: Q04DX004 (ip), vehicle: saline with Tween-80
[2] = dose: 50.0 mg/kg/injection, schedule: Q04DX004 (ip), vehicle: saline with Tween-80
[3] = dose: 100.0 mg/kg/injection, schedule: Q04DX004 (ip), vehicle: saline with Tween-80
[4] = dose: 200.0 mg/kg/injection, schedule: Q04DX004 (ip), vehicle: saline with Tween-80
[5] = dose: 400.0 mg/kg/injection, schedule: Q04DX004 (ip), vehicle: saline with Tween-80

Measured: T/C

COC(C(=O)C(O)C(C)O)C1CC2C=C3C=C(OC4CC(OC5CC(O)C(OC)C(C)O5)C(OC(C)=O)C(C)O4)C(C)C(=O)C3=C(O)C2=C(O)C1OC1CC(OC2CC(OC3CC(C)(O)C(O)C(C)O3)C(O)C(C)O2)C(O)C(C)O1 (stereo not drawn)
inactive: dose: 1.0 mg/kg/injection, schedule: Q04DX004 (ip), vehicle: saline with Tween-80 104 % of control | dose: 2.0 mg/kg/injection, schedule: Q04DX004 (ip), vehicle: saline with Tween-80 112 % of control | dose: 4.0 mg/kg/injection, schedule: Q04DX004 (ip), vehicle: saline with Tween-80 107 % of control and 112 % of control | dose: 8.0 mg/kg/injection, schedule: Q04DX004 (ip), vehicle: saline with Tween-80 104 % of control and 108 % of control | dose: 16.0 mg/kg/injection, schedule: Q04DX004 (ip), vehicle: saline with Tween-80 107 % of control and 111 % of control | dose: 32.0 mg/kg/injection, schedule: Q04DX004 (ip), vehicle: saline with Tween-80 117 % of control | dose: 64.0 mg/kg/injection, schedule: Q04DX004 (ip), vehicle: saline with Tween-80 115 % of control

[N-]=[N+]=NCCOCn1ccc(=O)[nH]c1=O
inactive: dose: 37.5 mg/kg/injection, schedule: Q04DX004 (ip), vehicle: suspension in saline 102 % of control | dose: 75.0 mg/kg/injection, schedule: Q04DX004 (ip), vehicle: suspension in saline 107 % of control | dose: 150.0 mg/kg/injection, schedule: Q04DX004 (ip), vehicle: suspension in saline 109 % of control | dose: 300.0 mg/kg/injection, schedule: Q04DX004 (ip), vehicle: suspension in saline 103 % of control | dose: 600.0 mg/kg/injection, schedule: Q04DX004 (ip), vehicle: suspension in saline 98 % of control

Clc1ccc(CC(Cn2ccnc2)c2ccccc2Cl)cc1 (stereo not drawn)
inactive: dose: 15.63 mg/kg/injection, schedule: Q04DX004 (ip), vehicle: saline with Tween-80 111 % of control | dose: 31.25 mg/kg/injection, schedule: Q04DX004 (ip), vehicle: saline with Tween-80 102 % of control | dose: 62.5 mg/kg/injection, schedule: Q04DX004 (ip), vehicle: saline with Tween-80 96 % of control | dose: 125.0 mg/kg/injection, schedule: Q04DX004 (ip), vehicle: saline with Tween-80 87 % of control

CNC(=O)Oc1ccc(S(=O)(=O)c2ccc(OC(=O)NC)cc2)cc1
inactive: [1] 100 % of control | [2] 96 % of control and 104 % of control | [3] 96 % of control and 97 % of control | [4] 100 % of control and 101 % of control

COc1cc2cc3c(c(O)c2c(O)c1/C=C/C(C)C)C(=O)CC(C)(OC(C)=O)C3 (stereo not drawn)
inactive: dose: 0.62 mg/kg/injection, schedule: Q01DX009 (ip), vehicle: Klucel (hydroxypropylcellulose) (HPC) 117 % of control | dose: 0.63 mg/kg/injection, schedule: Q01DX009 (ip), vehicle: Klucel (hydroxypropylcellulose) (HPC) 98 % of control and 104 % of control and 106 % of control | dose: 0.63 mg/kg/injection, schedule: Q04DX004 (ip), vehicle: Klucel (hydroxypropylcellulose) (HPC) 113 % of control | dose: 1.25 mg/kg/injection, schedule: Q04DX004 (ip), vehicle: Klucel (hydroxypropylcellulose) (HPC) 121 % of control | dose: 2.5 mg/kg/injection, schedule: Q04DX004 (ip), vehicle: Klucel (hydroxypropylcellulose) (HPC) 123 % of control | dose: 3.6 mg/kg/injection, schedule: Q04DX004 (ip), vehicle: Klucel (hydroxypropylcellulose) (HPC) 106 % of control | dose: 6.0 mg/kg/injection, schedule: Q04DX004 (ip), vehicle: Klucel (hydroxypropylcellulose) (HPC) 110 % of control | dose: 10.0 mg/kg/injection, schedule: Q04DX004 (ip), vehicle: Klucel (hydroxypropylcellulose) (HPC) 118 % of control | dose: 16.67 mg/kg/injection, schedule: Q04DX004 (ip), vehicle: Klucel (hydroxypropylcellulose) (HPC) 117 % of control

O=C1C(=O)N(c2cccc(Cl)c2)C(=O)N1Cc1ccccc1
inactive: dose: 43.75 mg/kg/injection, schedule: Q04DX004 (ip), vehicle: Klucel (hydroxypropylcellulose) (HPC) 102 % of control | dose: 87.5 mg/kg/injection, schedule: Q04DX004 (ip), vehicle: Klucel (hydroxypropylcellulose) (HPC) 97 % of control | dose: 175.0 mg/kg/injection, schedule: Q04DX004 (ip), vehicle: Klucel (hydroxypropylcellulose) (HPC) 92 % of control | dose: 350.0 mg/kg/injection, schedule: Q04DX004 (ip), vehicle: Klucel (hydroxypropylcellulose) (HPC) 94 % of control | dose: 700.0 mg/kg/injection, schedule: Q04DX004 (ip), vehicle: Klucel (hydroxypropylcellulose) (HPC) 88 % of control

O=C1C=CC2OC(c3ccccc3)C(O)C2O1 (stereo not drawn)
inactive: dose: 6.25 mg/kg/injection, schedule: Q04DX004 (ip), vehicle: DMSO 105 % of control | dose: 12.5 mg/kg/injection, schedule: Q04DX004 (ip), vehicle: DMSO 107 % of control | dose: 25.0 mg/kg/injection, schedule: Q04DX004 (ip), vehicle: DMSO 112 % of control | dose: 50.0 mg/kg/injection, schedule: Q04DX004 (ip), vehicle: DMSO 107 % of control

OCCOCCN1CCN(CCCN2c3ccccc3Sc3ccc(C(F)(F)F)cc32)CC1
inactive: dose: 0.75 mg/kg/injection, schedule: Q04DX004 (ip), vehicle: saline 105 % of control | dose: 1.5 mg/kg/injection, schedule: Q04DX004 (ip), vehicle: saline 110 % of control | dose: 3.0 mg/kg/injection, schedule: Q04DX004 (ip), vehicle: saline 91 % of control | dose: 6.0 mg/kg/injection, schedule: Q04DX004 (ip), vehicle: saline 105 % of control | dose: 7.5 mg/kg/injection, schedule: Q04DX004 (ip), vehicle: saline 96 % of control and 100 % of control and 103 % of control | dose: 12.0 mg/kg/injection, schedule: Q04DX004 (ip), vehicle: saline 104 % of control | dose: 15.0 mg/kg/injection, schedule: Q04DX004 (ip), vehicle: saline 102 % of control and 107 % of control and 119 % of control | dose: 30.0 mg/kg/injection, schedule: Q04DX004 (ip), vehicle: saline 101 % of control and 107 % of control and 122 % of control | dose: 60.0 mg/kg/injection, schedule: Q04DX004 (ip), vehicle: saline 96 % of control (2×) and 101 % of control

CCN(CC)c1ccc2[nH]c3c(C(N)=O)cc(=O)c(=O)c=3oc2c1
inactive: [1] 105 % of control | [2] 108 % of control | [3] 106 % of control | [4] 96 % of control

CCC(CC)C(=O)NCC(=O)NO
inactive: [1] 93 % of control | [2] 93 % of control | [3] 93 % of control | [4] 97 % of control | [5] 92 % of control

CCOC1NC(=O)Oc2ccccc21 (stereo not drawn)
inactive: dose: 50.0 mg/kg/injection, schedule: Q04DX004 (ip), vehicle: Klucel (hydroxypropylcellulose) (HPC) 107 % of control | dose: 100.0 mg/kg/injection, schedule: Q04DX004 (ip), vehicle: Klucel (hydroxypropylcellulose) (HPC) 100 % of control | dose: 200.0 mg/kg/injection, schedule: Q04DX004 (ip), vehicle: Klucel (hydroxypropylcellulose) (HPC) 99 % of control | dose: 400.0 mg/kg/injection, schedule: Q04DX004 (ip), vehicle: Klucel (hydroxypropylcellulose) (HPC) 121 % of control

O=P1(N(CCCl)CCCl)NCCCO1 (stereo not drawn)
active: dose: 80.0 mg/kg/injection, schedule: Q04DX003 (ip), vehicle: saline 201 % of control | dose: 160.0 mg/kg/injection, schedule: Q04DX003 (ip), vehicle: saline 261 % of control

CCOP1(OCC)(SSC)OC(=O)C(C)S1 (stereo not drawn)
inactive: dose: 18.75 mg/kg/injection, schedule: Q04DX004 (ip), vehicle: saline with Tween-80 92 % of control | dose: 37.5 mg/kg/injection, schedule: Q04DX004 (ip), vehicle: saline with Tween-80 88 % of control | dose: 75.0 mg/kg/injection, schedule: Q04DX004 (ip), vehicle: saline with Tween-80 98 % of control

COc1cc2c(c3c1c(=O)c1ccccc1n3C)C=CC(C)(C)O2
inactive: dose: 12.5 mg/kg/injection, schedule: Q04DX004 (ip), vehicle: saline with Tween-80 112 % of control | [1] 121 % of control | dose: 166.7 mg/kg/injection, schedule: Q04DX004 (ip), vehicle: saline with Tween-80 110 % of control

CCOC(=O)c1ccc2c(=O)[nH]nc(CO)c2c1
inactive: [1] 99 % of control | [2] 99 % of control | [3] 99 % of control | [4] 101 % of control | [5] 94 % of control

NC(C(=O)O)C1=CCCCCC1 (stereo not drawn)
inactive: dose: 16.25 mg/kg/injection, schedule: Q04DX004 (ip), vehicle: Klucel (hydroxypropylcellulose) (HPC) 100 % of control | dose: 32.5 mg/kg/injection, schedule: Q04DX004 (ip), vehicle: Klucel (hydroxypropylcellulose) (HPC) 111 % of control | dose: 65.0 mg/kg/injection, schedule: Q04DX004 (ip), vehicle: Klucel (hydroxypropylcellulose) (HPC) 104 % of control | dose: 130.0 mg/kg/injection, schedule: Q04DX004 (ip), vehicle: Klucel (hydroxypropylcellulose) (HPC) 95 % of control | dose: 260.0 mg/kg/injection, schedule: Q04DX004 (ip), vehicle: Klucel (hydroxypropylcellulose) (HPC) 100 % of control

NC(C(=O)O)C1=CCCC1 (stereo not drawn)
inactive: [1] 102 % of control | [2] 99 % of control | [3] 98 % of control | [4] 98 % of control | [5] 87 % of control
